By IC50 is commonly meant the concentration that gives 50% inhibition.

The nature of test [1]: Inhibition of pancreatic glucosidase in Swiss mouse pancreatic extracts.
Test [2] can be described thus: Inhibition of intestinal glucosidase in Swiss mouse intestinal extracts.
Test [3] deals with Lysosomal alpha-glucosidase (Mus musculus, UniProt P70699). The experiment in a line: Inhibition of liver glucosidase in Swiss mouse liver extracts.
Test [4] has as its target T1, Pancreatic alpha-amylase (Sus scrofa, UniProt P00690).
T1 sequence (P00690 whole entry): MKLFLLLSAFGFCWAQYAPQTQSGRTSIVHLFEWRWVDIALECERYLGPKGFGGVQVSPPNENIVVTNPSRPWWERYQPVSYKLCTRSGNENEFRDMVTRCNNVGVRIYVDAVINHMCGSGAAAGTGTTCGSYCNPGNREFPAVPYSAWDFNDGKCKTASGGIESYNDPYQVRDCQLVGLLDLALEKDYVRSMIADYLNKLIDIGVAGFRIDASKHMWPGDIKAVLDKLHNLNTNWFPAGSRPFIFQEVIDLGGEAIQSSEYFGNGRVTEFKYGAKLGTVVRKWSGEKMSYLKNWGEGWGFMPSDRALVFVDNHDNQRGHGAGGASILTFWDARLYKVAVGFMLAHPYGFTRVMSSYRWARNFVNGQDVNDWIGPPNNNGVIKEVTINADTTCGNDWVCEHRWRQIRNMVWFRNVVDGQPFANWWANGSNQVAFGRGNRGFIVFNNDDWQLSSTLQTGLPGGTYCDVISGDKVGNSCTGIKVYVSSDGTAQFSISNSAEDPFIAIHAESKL
The experiment in a line: Inhibition of porcine pancreatic alpha amylase using starch as substrate by Bernfeld method.

Chain of Lysosomal alpha-glucosidase (P70699 whole entry): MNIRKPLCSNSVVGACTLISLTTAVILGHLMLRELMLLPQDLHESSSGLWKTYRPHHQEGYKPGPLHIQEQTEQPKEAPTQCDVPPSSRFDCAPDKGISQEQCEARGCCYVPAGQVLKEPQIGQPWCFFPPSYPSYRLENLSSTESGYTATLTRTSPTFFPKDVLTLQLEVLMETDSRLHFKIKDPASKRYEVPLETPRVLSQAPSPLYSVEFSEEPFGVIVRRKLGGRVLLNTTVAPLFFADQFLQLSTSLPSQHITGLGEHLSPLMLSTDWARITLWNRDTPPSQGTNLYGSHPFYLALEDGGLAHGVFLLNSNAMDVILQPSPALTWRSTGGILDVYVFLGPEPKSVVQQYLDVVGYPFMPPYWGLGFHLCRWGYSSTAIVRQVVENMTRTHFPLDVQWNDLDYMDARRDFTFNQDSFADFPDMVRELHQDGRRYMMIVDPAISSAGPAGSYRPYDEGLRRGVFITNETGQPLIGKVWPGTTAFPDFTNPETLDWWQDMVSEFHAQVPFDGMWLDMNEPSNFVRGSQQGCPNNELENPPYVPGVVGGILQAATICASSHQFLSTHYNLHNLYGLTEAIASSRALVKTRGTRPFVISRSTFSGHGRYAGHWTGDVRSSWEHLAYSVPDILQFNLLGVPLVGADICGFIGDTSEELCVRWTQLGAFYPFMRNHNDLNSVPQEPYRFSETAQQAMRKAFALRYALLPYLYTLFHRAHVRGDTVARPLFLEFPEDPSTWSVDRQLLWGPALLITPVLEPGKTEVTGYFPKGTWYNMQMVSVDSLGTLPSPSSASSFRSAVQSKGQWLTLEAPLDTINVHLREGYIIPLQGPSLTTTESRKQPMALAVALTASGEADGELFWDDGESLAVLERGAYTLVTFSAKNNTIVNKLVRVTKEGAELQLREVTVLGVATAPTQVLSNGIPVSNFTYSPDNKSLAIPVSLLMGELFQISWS

On to `N#C/C=C1\C=C(c2ccc(Br)cc2)N=C2Sc3ccccc3N21`, for which the IC50 in test [1] was 23 µM; in test [2], “Not Active”; in test [3], 28.2 µM; in test [4], 15.3 µM.

In the case of `N#C/C=C1\C=C(c2ccccc2)N=C2Sc3ccccc3N21`, the IC50 in test [1] was determined as 21.4 µM; in test [2] (read-out: IC50), 32.6 µM; in test [3], 23.5 µM; in test [4], 23 µM.

In the case of `N#C/C=C1\C=C(c2ccc(Cl)cc2)N=C2Sc3ccccc3N21`, the IC50 in test [1] came to 17.4 µM; in test [2] (read-out: IC50), 17.6 µM; in test [3], 22 µM; in test [4], 21.9 µM.

Consider `N#C/C=C1\C=C(c2ccc(F)cc2)N=C2Sc3ccccc3N21`, for which the IC50 in test [1] was 17.5 µM; in test [2] (read-out: IC50) it was 37.3 µM; in test [3] it was 25 µM; in test [4], 24.4 µM.

Turning to `COc1ccc2c(c1)SC1=NC(c3ccc(F)cc3)=C/C(=C\C#N)N12`, the IC50 in test [1] worked out at 19 µM; in test [2] (read-out: IC50), 30.4 µM; in test [3] it was 21.1 µM; in test [4], 20.6 µM.

On to `N#C/C=C1\C=C(c2ccc3ccccc3c2)N=C2Sc3ccccc3N21`, for which the IC50 in test [1] was found to be 22.9 µM; in test [2] (read-out: IC50), 22.6 µM; in test [3] it was 21.2 µM; in test [4], 19.9 µM.

In the case of `COc1ccc2c(c1)SC1=NC(c3ccc4ccccc4c3)=C/C(=C\C#N)N12`, the IC50 in test [1] was determined as 30.3 µM; in test [2] (read-out: IC50), 62.5 µM; in test [3] it was 15.9 µM; in test [4], 18.7 µM.

For `COc1ccc2c(c1)SC1=NC(c3ccc(Cl)cc3)=C/C(=C\C#N)N12`, the IC50 turned out to be 20.7 µM in test [1], 25.9 µM in test [2] (read-out: IC50), 19.7 µM in test [3] and 20.2 µM in test [4].

`Cc1ccc(C2=C/C(=C\C#N)N3C(=N2)Sc2ccccc23)cc1`: the IC50 in test [1] turned out to be 34.9 µM; in test [2] (read-out: IC50), 36.1 µM; in test [3], 20.3 µM; in test [4], 23.2 µM.

Take `COc1ccc2c(c1)SC1=NC(c3ccc(C)cc3)=C/C(=C\C#N)N12`: the IC50 was 29.5 µM in test [1], 27.4 µM in test [2] (read-out: IC50), 18.3 µM in test [3] and 19.5 µM in test [4].

Turning to `COc1ccc2c(c1)SC1=NC(c3ccccc3)=C/C(=C\C#N)N12`, the IC50 in test [1] amounted to 29.2 µM; in test [2] (read-out: IC50), 41.6 µM; in test [3], 25 µM; in test [4], 22.3 µM.

`CCOc1ccc2c(c1)SC1=NC(c3ccccc3)=C/C(=C\C#N)N12`: the IC50 in test [1] worked out at 46.1 µM; in test [2] (read-out: IC50) it was 38.6 µM; in test [3], 18.7 µM; in test [4], 21.8 µM.

On to `COc1ccc2c(c1)SC1=NC(c3ccc(Br)cc3)=C/C(=C\C#N)N12`, for which the IC50 in test [1] was determined as 33.8 µM; in test [2] (read-out: IC50) it was 30.5 µM; in test [3], 14.1 µM; in test [4], 17.4 µM.

Take `C[C@H]1O[C@H](O[C@H]2[C@H](O)[C@@H](O)[C@@H](O[C@H]3[C@H](O)[C@@H](O)C(O)O[C@@H]3CO)O[C@@H]2CO)[C@H](O)[C@@H](O)[C@@H]1N[C@H]1C=C(CO)[C@@H](O)[C@H](O)[C@H]1O` (stereo not given in full) [ACARBOSE]: the IC50 is more than 100 µM in test [1], “Not Active” in test [2] and more than 100 µM in test [3].

The values are drawn from ChEMBL document CHEMBL2203065, “Synthesis and glycosidase inhibitory activity of novel (2-phenyl-4H-benzopyrimedo[2,1-b]-thiazol-4-yliden)acetonitrile derivatives” (Bioorg Med Chem Lett, 2012).
